{"source": "paper PMC11578424", "about": "“Discovery of novel 2,4-diarylaminopyrimidine hydrazone derivatives as potent anti-thyroid cancer agents capable of inhibiting FAK” (Journal of Enzyme Inhibition and Medicinal Chemistry, 2024)", "key": {"[1]": {"biological_target": "EGFR (Homo sapiens, UniProt P00533)", "sequence (P00533 25-1210, species assumed)": "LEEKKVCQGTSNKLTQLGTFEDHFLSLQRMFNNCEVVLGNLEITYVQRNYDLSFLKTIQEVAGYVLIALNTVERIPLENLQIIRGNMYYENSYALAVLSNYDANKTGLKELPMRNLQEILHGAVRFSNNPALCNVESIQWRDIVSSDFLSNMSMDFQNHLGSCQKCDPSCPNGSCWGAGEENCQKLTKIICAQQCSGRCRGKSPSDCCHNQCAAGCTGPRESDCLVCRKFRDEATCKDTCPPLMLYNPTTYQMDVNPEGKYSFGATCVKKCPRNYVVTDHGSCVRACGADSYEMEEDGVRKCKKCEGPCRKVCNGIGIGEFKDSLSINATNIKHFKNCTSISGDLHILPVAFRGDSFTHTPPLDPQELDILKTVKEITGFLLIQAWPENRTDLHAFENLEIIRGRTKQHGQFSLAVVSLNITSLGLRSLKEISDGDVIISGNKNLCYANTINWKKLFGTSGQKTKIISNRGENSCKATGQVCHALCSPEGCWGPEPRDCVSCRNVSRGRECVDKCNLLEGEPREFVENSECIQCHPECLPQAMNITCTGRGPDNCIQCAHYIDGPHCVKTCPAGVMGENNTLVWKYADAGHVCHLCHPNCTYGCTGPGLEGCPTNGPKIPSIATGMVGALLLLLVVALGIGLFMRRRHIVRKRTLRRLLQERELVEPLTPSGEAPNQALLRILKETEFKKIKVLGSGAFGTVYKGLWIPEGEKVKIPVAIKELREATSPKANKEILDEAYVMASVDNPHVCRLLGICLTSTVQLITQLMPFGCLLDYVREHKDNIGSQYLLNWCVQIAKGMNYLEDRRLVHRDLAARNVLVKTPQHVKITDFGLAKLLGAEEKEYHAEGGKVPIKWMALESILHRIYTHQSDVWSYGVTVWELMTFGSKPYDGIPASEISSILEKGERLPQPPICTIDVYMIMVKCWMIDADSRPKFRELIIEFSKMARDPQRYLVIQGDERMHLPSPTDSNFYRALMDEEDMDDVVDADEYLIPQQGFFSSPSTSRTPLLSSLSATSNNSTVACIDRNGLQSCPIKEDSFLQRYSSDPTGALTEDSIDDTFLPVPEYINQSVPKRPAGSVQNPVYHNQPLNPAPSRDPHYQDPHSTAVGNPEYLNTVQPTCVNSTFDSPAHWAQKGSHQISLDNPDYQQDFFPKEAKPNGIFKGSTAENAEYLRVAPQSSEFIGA", "experiment": "Kinase inhibition assay (Kinase-Glo Plus)", "type": "biochemical", "conditions": "Figure 3A; 10 µM ATP; read-out: IC50 (nmol/L) EGFR", "procedure": "(§1) The 50 µl reaction mixture contains 40 mM Tris, pH 7.4, 10 mM MgCl2, 0.1 mg/ml BSA, 1 mM DTT, 10 µM ATP, Kinase and the enzyme substrate. The compound was diluted in 10% DMSO and 5 µl of the dilution was added to a 50 µl reaction so that the final concentration of DMSO is 1% in all of the reactions. The assay was performed using a Kinase-Glo Plus luminescence kinase assay kit. It measures kinase activity by quantitating the amount of ATP remaining in solution following a kinase reaction. The luminescent signal from the assay is correlated with the amount of ATP present and is inversely correlated with the amount of kinase activity. The IC50 values were calculated using nonlinear regression with normalised dose-response fit using Prism GraphPad software."}, "[2]": {"biological_target": "ROS1 (Homo sapiens, UniProt P08922)", "sequence (P08922 1883-2347 limits assumed)": "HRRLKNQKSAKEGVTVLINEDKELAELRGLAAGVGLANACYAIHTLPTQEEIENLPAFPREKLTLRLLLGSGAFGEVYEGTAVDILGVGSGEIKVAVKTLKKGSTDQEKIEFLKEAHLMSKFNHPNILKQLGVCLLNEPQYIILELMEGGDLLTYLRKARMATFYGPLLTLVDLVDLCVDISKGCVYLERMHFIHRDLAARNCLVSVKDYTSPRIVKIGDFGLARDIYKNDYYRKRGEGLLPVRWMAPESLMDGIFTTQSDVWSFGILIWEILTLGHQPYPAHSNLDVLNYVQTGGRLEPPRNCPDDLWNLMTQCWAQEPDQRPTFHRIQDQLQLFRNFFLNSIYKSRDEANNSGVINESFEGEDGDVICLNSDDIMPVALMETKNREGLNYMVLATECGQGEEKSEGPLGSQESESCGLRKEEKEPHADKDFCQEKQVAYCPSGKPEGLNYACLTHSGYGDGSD", "experiment": "Kinase inhibition assay (Kinase-Glo Plus)", "type": "biochemical", "conditions": "Figure 3A; 10 µM ATP; read-out: IC50 (nmol/L) ROS1", "procedure": "as §1"}, "[3]": {"biological_target": "ALK (Homo sapiens, UniProt Q9UM73)", "sequence (Q9UM73 19-1620, species assumed)": "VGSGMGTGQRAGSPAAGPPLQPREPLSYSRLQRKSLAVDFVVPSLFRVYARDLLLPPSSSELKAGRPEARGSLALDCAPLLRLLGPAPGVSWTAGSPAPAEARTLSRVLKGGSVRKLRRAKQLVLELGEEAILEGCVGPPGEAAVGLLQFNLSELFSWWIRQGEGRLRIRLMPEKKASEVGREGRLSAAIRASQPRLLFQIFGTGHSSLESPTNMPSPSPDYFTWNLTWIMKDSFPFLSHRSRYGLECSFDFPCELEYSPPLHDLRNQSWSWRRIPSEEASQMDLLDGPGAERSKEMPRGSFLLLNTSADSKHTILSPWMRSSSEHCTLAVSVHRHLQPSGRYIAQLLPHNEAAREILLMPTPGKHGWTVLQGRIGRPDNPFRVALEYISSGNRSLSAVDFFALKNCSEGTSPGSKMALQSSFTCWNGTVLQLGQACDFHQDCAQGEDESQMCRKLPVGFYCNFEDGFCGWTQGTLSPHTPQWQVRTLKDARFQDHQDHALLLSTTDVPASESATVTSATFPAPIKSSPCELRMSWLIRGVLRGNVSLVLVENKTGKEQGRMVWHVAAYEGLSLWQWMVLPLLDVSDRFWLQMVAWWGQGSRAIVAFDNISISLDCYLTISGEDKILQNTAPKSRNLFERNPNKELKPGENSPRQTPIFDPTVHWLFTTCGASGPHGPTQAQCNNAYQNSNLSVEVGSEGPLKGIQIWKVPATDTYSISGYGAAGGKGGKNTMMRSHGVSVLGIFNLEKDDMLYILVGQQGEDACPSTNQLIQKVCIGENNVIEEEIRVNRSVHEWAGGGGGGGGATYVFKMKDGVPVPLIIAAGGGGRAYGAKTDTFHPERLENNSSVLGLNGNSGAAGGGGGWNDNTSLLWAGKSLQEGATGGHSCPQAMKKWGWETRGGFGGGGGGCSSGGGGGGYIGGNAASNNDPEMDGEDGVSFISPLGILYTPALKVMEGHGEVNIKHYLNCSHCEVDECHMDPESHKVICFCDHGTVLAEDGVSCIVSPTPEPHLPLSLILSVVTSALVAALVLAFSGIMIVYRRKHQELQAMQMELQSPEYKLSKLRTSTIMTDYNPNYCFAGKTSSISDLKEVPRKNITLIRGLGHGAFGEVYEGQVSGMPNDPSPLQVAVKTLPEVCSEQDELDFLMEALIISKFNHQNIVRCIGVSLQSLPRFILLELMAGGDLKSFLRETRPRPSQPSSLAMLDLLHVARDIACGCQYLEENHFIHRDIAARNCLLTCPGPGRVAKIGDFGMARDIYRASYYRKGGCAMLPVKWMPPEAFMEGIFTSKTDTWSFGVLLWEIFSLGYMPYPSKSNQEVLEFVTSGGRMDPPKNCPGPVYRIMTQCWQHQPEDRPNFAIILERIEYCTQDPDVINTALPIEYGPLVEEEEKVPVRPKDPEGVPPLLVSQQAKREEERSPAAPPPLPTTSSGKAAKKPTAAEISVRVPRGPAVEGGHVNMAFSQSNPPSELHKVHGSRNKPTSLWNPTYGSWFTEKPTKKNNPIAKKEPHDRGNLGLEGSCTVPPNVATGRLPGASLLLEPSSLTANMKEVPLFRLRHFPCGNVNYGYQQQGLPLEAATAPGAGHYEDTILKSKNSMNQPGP", "experiment": "Kinase inhibition assay (Kinase-Glo Plus)", "type": "biochemical", "conditions": "Figure 3A; 10 µM ATP; read-out: IC50 (nmol/L) ALK", "procedure": "as §1"}, "[4]": {"system": "TPC-1 cells", "experiment": "Colony formation assay", "type": "cell-based", "conditions": "5-day treatment", "procedure": "TCP-1 cells are plated at a density of 10,000 to 20,000 cells per well in a 6-well plate. After cell adhesion, the cells are treated with different concentrations of compound 14f and cultured for 5 days in an incubator. At the end of the culture period, the medium is aspirated, and the cells are washed three times with PBS. The cells are then fixed with 4% paraformaldehyde for 20 min at room temperature. After fixation, the fixative is removed, and the cells are stained with 0.1% crystal violet at room temperature for 20 min. Following staining, the cells are rinsed with PBS until the purple colour is completely washed away, and then air-dried for image acquisition."}, "[5]": {"system": "TPC-1 cells", "experiment": "Cell cycle distribution", "type": "cell-based", "conditions": "48-h treatment"}, "[6]": {"system": "thyroid cancer cells TPC-1", "experiment": "Transwell migration assay", "type": "cell-based", "conditions": "TPC-1 cells, 48 h", "procedure": "A 24-well plate is filled with 500 μL of RPMI-1640 medium containing 20% serum per well, and Transwell chambers are placed in the wells. TCP-1 cells are resuspended in serum-free medium and mixed with compound 14f, then added to the upper chamber of the Transwell chambers. The 24-well plates are incubated at 37 °C with 5% CO2 for 48 h. After incubation, the plates are removed, and the chambers are immersed in 4% paraformaldehyde and fixed at room temperature for 10 min. Following fixation, 0.1% crystal violet staining solution is added to the 24-well plates, and the chambers are stained at room temperature for 30 min. After staining, the plates are washed, the upper layer of cells is gently wiped off with a cotton swab, and the chambers are air-dried. Images are captured using a microscope."}, "[7]": {"system": "thyroid cancer cells TPC-1", "experiment": "Wound healing assay", "type": "cell-based", "conditions": "TPC-1 cells, various durations", "procedure": "TCP-1 cells are seeded into a 6-well cell culture plate and cultured in an incubator at 37 °C with 5% CO2. Once the cells uniformly cover the bottom of the well, a vertical line is drawn in the centre of each well to mark the initial scratch. Fresh medium is replaced and different concentrations of 14f are added. Photographs are taken to document the healing at 0 h, 24 h, 36 h and 48 h post-scratch. Images are processed using ImageJ software. Data analysis is performed using GraphPad Prism software version 8.0."}, "[8]": {"system": "thyroid cancer cells TPC-1", "experiment": "MTT antiproliferative assay", "type": "cell-based", "procedure": "Thyroid cancer cells TCP-1 were provided by Wuhan Servicebio Co., Ltd. TCP-1 cells are cultured in RPMI-1640 medium supplemented with 10% foetal bovine serum (FBS), 100 U/mL penicillin, and 0.1 mg/mL streptomycin. All cells are maintained in a humidified incubator at 37 °C with 5% CO2.\nThe TCP-1 cell line is seeded into a 96-well plate and incubated under conditions of 37 °C and 5% CO2. After the cells adhere, different concentrations of compounds are added and the incubation continues for 48 h under the same conditions. Subsequently, MTT reagent is added to the medium and the incubation is continued for an additional 4 h at 37 °C. After the incubation, the medium is aspirated, and 150 μL of DMSO solution is added to dissolve the purple-blue crystals by shaking. The absorbance of the solution is measured at a wavelength of 490 nm. The IC50 value of the compounds is calculated using SPSS software version 20.0."}, "[9]": {"biological_target": "T1, FAK (Homo sapiens, UniProt Q05397)", "T1 sequence (Q05397 whole entry, species assumed)": "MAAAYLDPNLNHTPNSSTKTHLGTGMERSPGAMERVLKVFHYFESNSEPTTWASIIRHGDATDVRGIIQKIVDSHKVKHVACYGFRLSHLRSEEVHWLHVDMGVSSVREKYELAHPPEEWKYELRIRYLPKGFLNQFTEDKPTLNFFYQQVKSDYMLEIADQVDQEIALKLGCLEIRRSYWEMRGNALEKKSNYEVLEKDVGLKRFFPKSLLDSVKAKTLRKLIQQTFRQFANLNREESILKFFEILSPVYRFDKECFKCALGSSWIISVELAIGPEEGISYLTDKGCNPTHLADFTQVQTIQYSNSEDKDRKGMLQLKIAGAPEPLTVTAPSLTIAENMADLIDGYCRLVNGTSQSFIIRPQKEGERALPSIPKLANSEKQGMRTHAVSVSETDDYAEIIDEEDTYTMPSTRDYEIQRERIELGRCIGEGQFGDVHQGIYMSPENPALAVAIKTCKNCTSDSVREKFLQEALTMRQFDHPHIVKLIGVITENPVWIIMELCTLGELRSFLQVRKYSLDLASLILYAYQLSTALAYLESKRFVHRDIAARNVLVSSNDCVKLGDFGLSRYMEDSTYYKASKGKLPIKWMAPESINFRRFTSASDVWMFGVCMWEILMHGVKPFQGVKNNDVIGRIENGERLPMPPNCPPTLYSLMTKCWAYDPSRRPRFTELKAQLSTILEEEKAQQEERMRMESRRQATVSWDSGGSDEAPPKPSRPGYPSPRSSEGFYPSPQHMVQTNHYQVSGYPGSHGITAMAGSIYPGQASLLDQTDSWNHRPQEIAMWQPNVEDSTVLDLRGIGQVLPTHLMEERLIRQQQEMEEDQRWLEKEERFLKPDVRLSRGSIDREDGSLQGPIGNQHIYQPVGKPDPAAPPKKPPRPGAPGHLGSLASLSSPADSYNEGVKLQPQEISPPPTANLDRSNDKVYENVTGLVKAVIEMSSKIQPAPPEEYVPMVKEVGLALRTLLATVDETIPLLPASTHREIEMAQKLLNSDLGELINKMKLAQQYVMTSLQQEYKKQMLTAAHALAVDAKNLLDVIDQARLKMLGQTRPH", "experiment": "Kinase inhibition assay (Kinase-Glo Plus)", "type": "biochemical", "conditions": "10 µM ATP", "text": "It measures kinase activity by quantitating the amount of ATP remaining in solution following a kinase reaction. The luminescent signal from the assay is correlated with the amount of ATP present and is inversely correlated with the amount of kinase activity."}, "[10]": {"system": "thyroid cancer cells TPC-1", "experiment": "EdU staining assay", "type": "cell-based", "conditions": "TPC-1 cells, 48 h", "procedure": "TCP-1 cells are treated with compound 14f, followed by the addition of an equal volume of 1X EdU working solution to the drug-containing medium, and incubated under conditions of 37 °C and 5% CO2 for 4 h. After incubation, the cells are fixed with 4% paraformaldehyde for 15 min. The fixative is then removed, and the cells are permeabilized with PBS containing 0.3% Triton X-100 at room temperature. After washing, the Click reaction working solution is added and incubated at 37 °C for 30 min. The cells are then washed and stained with a prepared Hoechst staining solution for 10 min to stain the cell nuclei. After staining, the staining solution is removed, the cells are washed, and images are captured and saved using a fluorescence microscope."}, "[11]": {"biological_target": "T1, FAK", "experiment": "Western blot of FAK and its phosphorylation sites in TPC-1 cells", "type": "cell-based", "conditions": "TPC-1 cells, 50, 100 and 200 nmol/L, 48 h", "procedure": "Different concentrations of compound 14f are applied to TCP-1 cells for 48 h, after which the cells are collected and lysed in RIPA lysis buffer (Solarbio, R0010). Protein concentration is determined using the BCA Protein Concentration Assay Kit (Solarbio, PC0020). Proteins were denatured using 4X SDS-PAGE loading buffer (Solarbio, P1016) at 100 °C for 10 min. The denatured protein samples are separated by SDS-PAGE electrophoresis. Proteins are transferred from the gel to nitrocellulose (NC) membrane (Pall Corporation, P/N 66485) and blocked with 5% non-fat milk for 1 h at room temperature. After washing with TBST, the primary antibody is added and incubated overnight at 4 °C. The membrane is washed with TBST and then incubated with the secondary antibody at room temperature for 1–2 h. The membrane is washed again with TBST, and the protein bands are visualised using an ECL (Solarbio, PE0010) ultra-sensitive luminescent reagent, followed by imaging with a chemiluminescence imaging analyser (Cytiva, […] ImageQuant 800, JPN). The ladder used for Western Blot experiments was purchased from Thermo Scientific (Thermo Scientific, catalog number:26616). […]"}}, "note": "Entries after “also recorded” stand apart in the source; their conditions may differ.", "data": [{"compound": "CNC(=O)c1ccccc1Nc1nc(N/N=C/c2ccc(F)cc2)ncc1Cl", "note": "[14f, (E)-2-((5-chloro-2–(2-(4-fluorobenzylidene)hydrazineyl)pyrimidin-4-yl)amino)-N-methylbenzamide]", "values": [{"measurement": "IC50", "setting": "[1]", "result": "> 1000", "unit": "nmol/L"}, {"measurement": "IC50", "setting": "[2]", "result": 593, "unit": "nmol/L"}, {"measurement": "IC50", "setting": "[3]", "result": 285, "unit": "nmol/L"}, {"measurement": "concentration from which colony formation is discernibly inhibited", "setting": "[4]", "result": "≥ 100", "unit": "nmol/L"}, {"measurement": "cell cycle distribution", "setting": "[5]", "result": "pronounced G1 phase arrest"}, {"measurement": "number of cells that traversed through the membrane", "setting": "[6]", "result": "significant reduction"}, {"measurement": "wound healing (cell migration)", "setting": "[7]", "result": "significant inhibitory effect on cell migration"}, {"measurement": "melting point", "result": "176.1 to 177.8", "unit": "°C"}, {"measurement": "IC50", "setting": "[8]; Homo sapiens, TPC1, 48 h, MTT assay, 48 h, average with SD (n = 3, duplicate), read-out: IC50 (μM), antiproliferative activity against thyroid cancer cells TPC-1", "result": "0.113 ± 0.003", "unit": "µM"}, {"measurement": "times more potent than TAE-226 in TPC-1 cells", "setting": "[8]; ratio of IC50 values, TPC-1 cells", "result": "approximately 8.57 times"}, {"measurement": "IC50", "setting": "[9]", "result": 35, "unit": "nM"}, {"measurement": "number of cells positive for EdU", "setting": "[10]", "result": "significant reduction"}, {"measurement": "expression level of FAK", "setting": "[11]", "result": "did not affect the expression level of FAK; also recorded: no significant changes"}]}]}
